Experimental data reported in ChEMBL document CHEMBL4420066, “Aryl amine substituted quinoxaline used as anticancer drugs” (2017).
Calls of active or inactive are those of the source. No cut-off for these calls is given here.

Key:
[1] = species on record: Homo sapiens; experiment: Inhibition of His-tagged recombinant human SET1 protein (1 to 290 amino acids) expressed in Escherichia coli interaction with N-terminal GST-tagged recombinant human PP2A-C (1 to 309 amino acids) assessed as minimal concentration causing disruption of SET-PP2Ac binding by SPR assay
[2] = species on record: Homo sapiens; experiment: Activation of PP2A in human HA22T cells assessed as minimal concentration causing increase in protein phosphatase activity incubated for 24 hrs using phosphopeptide substrate incubated for 10 mins by malachite green-phosphate complex assay; format: cell-based
[3] = species on record: Homo sapiens; experiment: Activation of PP2A in human PLC5 cells assessed as minimal concentration causing increase in protein phosphatase activity incubated for 24 hrs using phosphopeptide substrate incubated for 10 mins by malachite green-phosphate complex assay; format: cell-based
[4] = species on record: Homo sapiens; experiment: Activation of PP2A in human Hep3B cells assessed as minimal concentration causing increase in protein phosphatase activity incubated for 24 hrs using phosphopeptide substrate incubated for 10 mins by malachite green-phosphate complex assay; format: cell-based
[5] = species on record: Homo sapiens; experiment: Activation of PP2A in human SKHEP1 cells assessed as minimal concentration causing increase in protein phosphatase activity incubated for 24 hrs using phosphopeptide substrate incubated for 10 mins by malachite green-phosphate complex assay; format: cell-based
[6] = tested on: Homo sapiens; experiment: Antitumor activity against human PLC5 cells xenografted in mouse assessed as reduction in tumor size at 10 mg/kg dosed for 4 weeks; format: functional, organism-based
[7] = species on record: Homo sapiens; experiment: Cytotoxicity against human PLC5 cells assessed as reduction in cell viability at 0.5 to 4 uM incubated for 48 hrs by MTT assay; format: functional, cell-based
[8] = tested on: HA22T cell line; experiment: Induction of apoptosis in human HA22T cells assessed as accumulation at subG1 phase at 0.5 to 4 uM by flow cytometry; format: functional, cell-based
[9] = tested on: HA22T cell line; experiment: Cytotoxicity against human HA22T cells assessed as reduction in cell viability incubated for 48 hrs by MTT assay; format: functional, cell-based
[10] = tested on: Hep 3B2; experiment: Cytotoxicity against human Hep3B cells assessed as reduction in cell viability incubated for 48 hrs by MTT assay; format: functional, cell-based
[11] = species on record: Homo sapiens; experiment: Cytotoxicity against human PLC5 cells assessed as reduction in cell viability incubated for 48 hrs by MTT assay; format: functional, cell-based
[12] = tested on: SK-HEP1; experiment: Cytotoxicity against human SKHEP1 cells assessed as reduction in cell viability incubated for 48 hrs by MTT assay; format: functional, cell-based
[13] = tested on: Hep 3B2; experiment: Induction of apoptosis in human Hep3B cells assessed as accumulation at subG1 phase at 0.5 to 4 uM by flow cytometry; format: functional, cell-based
[14] = species on record: Homo sapiens; experiment: Induction of apoptosis in human PLC5 cells assessed as accumulation at subG1 phase at 0.5 to 4 uM by flow cytometry; format: functional, cell-based
[15] = tested on: SK-HEP1; experiment: Induction of apoptosis in human SKHEP1 cells assessed as accumulation at subG1 phase at 0.5 to 4 uM by flow cytometry; format: functional, cell-based

Structure (SMILES)	MEC [1] [nM]	MEC [2] [nM]	MEC [3] [nM]	MEC [4] [nM]	MEC [5] [nM]	also measured
FS(F)(F)(F)(F)c1ccc(Nc2nc3ccccc3nc2Cl)cc1	> 200	> 200	> 200	> 200	> 200	
COc1cccc(Nc2nc3ccc([N+](=O)[O-])cc3nc2Nc2cccc(OC)c2)c1	> 200	> 200	> 200	> 200	> 200	
COc1ccc(Nc2nc3ccc([N+](=O)[O-])cc3nc2Nc2cccc(O)c2)cc1		< 100	< 100	< 100	< 100	
C#Cc1cccc(Nc2nc3ccc([N+](=O)[O-])cc3nc2Nc2cccc(C#C)c2)c1	50 to 100	< 50	< 50	< 50	< 50	
FC(F)(F)c1cc(Nc2nc3ccccc3nc2Cl)cc(C(F)(F)F)c1	> 200	> 200	> 200	> 200	> 200	
Clc1nc2ccccc2nc1NCc1ccccc1	> 200	> 200	> 200	> 200	> 200	
FC(F)(F)Oc1ccc(Nc2nc3ccccc3nc2Cl)cc1	> 200	> 200	> 200	> 200	> 200	
CNC(=O)c1cc(Oc2ccc(NC(=O)Nc3ccc(Cl)c(C(F)(F)F)c3)cc2)ccn1						Activity [6]: Active; Activity [7]: Active
O=[N+]([O-])c1ccc2nc(Nc3cccc(C(F)(F)F)c3)c(Nc3cccc(C(F)(F)F)c3)nc2c1	> 200	> 200	> 200	> 200	> 200	
Nc1ccc2nc(Nc3ccc(C(F)(F)F)cc3)c(Nc3ccc(C(F)(F)F)cc3)nc2c1	> 200	> 200	> 200	> 200	> 200	
O=[N+]([O-])c1cccc(Nc2nc3ccccc3nc2Cl)c1	> 200	> 200	> 200	> 200	> 200	
FC(F)(F)Oc1ccc(Nc2nc3ccccc3nc2Nc2ccc(OC(F)(F)F)cc2)cc1	< 100	50 to 100	50 to 100	50 to 100	50 to 100	
C#Cc1cccc(Nc2nc3cc([N+](=O)[O-])ccc3nc2Nc2ccc(OC)cc2)c1	100 to 200	100 to 200	100 to 200	100 to 200	100 to 200	
Oc1ccc(Nc2nc3ccccc3nc2Nc2ccc(O)cc2)cc1	< 100	100 to 200	100 to 200	100 to 200	100 to 200	
FC(F)(F)c1cc(Nc2nc3ccccc3nc2Nc2ccc(Cl)c(C(F)(F)F)c2)ccc1Cl	< 100	100 to 200	100 to 200	100 to 200	100 to 200	
FS(F)(F)(F)(F)c1ccc(Nc2nc3ccccc3nc2Nc2ccc(S(F)(F)(F)(F)F)cc2)cc1	50	< 50	< 50	< 50	< 50	
Clc1cccc(Nc2nc3ccccc3nc2Cl)c1	> 200	> 200	> 200	> 200	> 200	
Clc1cc(Cl)cc(Nc2nc3ccccc3nc2Cl)c1	100 to 200	> 200	> 200	> 200	> 200	
O=[N+]([O-])c1ccc2nc(Nc3cccc(Br)c3)c(Nc3cccc(Br)c3)nc2c1	> 200	> 200	> 200	> 200	> 200	
Clc1nc2ccccc2nc1Nc1ccccc1	> 200	> 200	> 200	> 200	> 200	
C#Cc1cccc(Nc2ncnc3cc(OCCOC)c(OCCOC)cc23)c1						Activity [8]: Active; Activity [9]: Active; Activity [10]: Active; Activity [11]: Active; Activity [12]: Active; Activity [13]: Active; Activity [14]: Active; Activity [15]: Active
